From patent publication US6063766A, “Transport protein which effects the transport of cationic xenobiotics and/or pharmaceuticals, DNA sequences encoding it and their use” (priority 1994, dated 2000)
Like-named read-outs stand apart in the source and are kept apart here. One block for each compound: values may come before it.

Columns and labels:
OCT1 transport protein [1] = biological target: T1, OCT1 transport protein (Rattus norvegicus, UniProt Q63089); conditions: xenopus oocytes expressing oct1
T1 sequence (Q63089 1-556): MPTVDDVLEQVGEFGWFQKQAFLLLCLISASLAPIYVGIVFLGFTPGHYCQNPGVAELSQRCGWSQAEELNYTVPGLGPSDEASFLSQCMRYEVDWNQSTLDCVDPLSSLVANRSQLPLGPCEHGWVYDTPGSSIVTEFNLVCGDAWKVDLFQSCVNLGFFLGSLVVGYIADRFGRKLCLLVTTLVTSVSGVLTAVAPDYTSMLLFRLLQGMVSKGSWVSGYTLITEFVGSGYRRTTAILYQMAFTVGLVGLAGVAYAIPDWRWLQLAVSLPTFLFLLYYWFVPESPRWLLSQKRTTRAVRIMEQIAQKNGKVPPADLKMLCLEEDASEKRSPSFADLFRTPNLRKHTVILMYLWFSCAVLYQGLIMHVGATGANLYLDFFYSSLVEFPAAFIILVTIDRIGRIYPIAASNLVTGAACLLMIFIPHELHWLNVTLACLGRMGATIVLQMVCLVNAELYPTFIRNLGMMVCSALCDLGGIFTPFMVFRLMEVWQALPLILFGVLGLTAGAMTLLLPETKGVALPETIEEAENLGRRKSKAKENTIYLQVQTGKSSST

luminal uptake of TEA = conditions: previous investigations, cited from earlier work
[2] = biological target: basolateral membrane of rat proximal renal tubules; conditions: microperfusion experiments; previous investigations; read-out: Ki for basolateral uptake of TEA into rat proximal renal tubules; cited from earlier work
OCT1 transport protein [3] = biological target: T1, OCT1 transport protein; experiment: Inhibition of ^14 C-TEA uptake in Xenopus laevis oocytes injected with OCT1 cRNA
OCT1 transport protein [4] = biological target: T1, OCT1 transport protein; conditions: 8 ng OCT1 cRNA injected
[5] = biological target: MPP uptake in hepatocytes; conditions: cultured hepatocytes; cited from earlier work
[6] = test system: LLC-PK1 cells, basolateral membrane; conditions: estimated, read-out: Ki for transport of TEA across the basolateral membrane, LLC-PK1 cells; cited from earlier work
[7] = test system: LLC-PK1 cells, luminal membrane; conditions: read-out: Ki for transport of TEA across the luminal membrane, LLC-PK1 cells; cited from earlier work
OCT1 transport protein [8] = biological target: T1, OCT1 transport protein; experiment: cell-based
[9] = test system: neuronal monoamine transport protein in synaptic vesicles; conditions: cited from earlier work
[10] = Ki for inhibition of OCT1-elicited ^14 C-TEA uptake

Ki (OCT1 transport protein [1]): 5.2 ± 0.3 µM
SMILES: CC(C)C(c1ccccc1)C(O)CC[N+]1(C)CCCCC1 (centres unmarked) [Mepiperphenidol]

SMILES: C[n+]1cccc(C(N)=O)c1 [N^1 -Methylnicotinamide]
Ki (luminal uptake of TEA; read-out: Ki for luminal uptake of TEA (printed in nM)): 8.3e+06 nM
Ki [2]: 540 µM
inhibition by NMN of OCT1-induced ^14 C-TEA uptake (in words) (OCT1 transport protein [3]): able to inhibit
inhibition of OCT1-elicited ^14 C-TEA uptake (in words) (OCT1 transport protein [3]): inhibited
Ki (OCT1 transport protein [3]; [10]): 1 ± 0.2 mM
Ki (OCT1 transport protein [3]; Ki for inhibition of OCT1-elicited ^14 C-TEA uptake (mM, text)): ~1 mM

SMILES: C=C[C@H]1C[N@@]2CC[C@H]1C[C@H]2[C@H](O)c1ccnc2ccc(OC)cc12 [Quinine]
inhibition of expressed ^3 H-MPP uptake (in words) (OCT1 transport protein [4]): inhibited

SMILES: CC[n+]1c(C=C2C=C(C)N=C(c3ccccc3)N2C)ccc2ccccc21 [Cyanine 863, 1-ethyl-2([1,4-dimethyl-2-phenyl-6-pyrimidinylidene]methyl)quinoliniumchloride]
Ki (OCT1 transport protein [3]; [10]): 0.00013 mM
Ki [5]: 0.1 µM

SMILES: CCCCC[N+](CCCCC)(CCCCC)CCCCC [Tetrapentylammonium]
Ki (OCT1 transport protein [1]): 0.43 ± 0.09 µM

Ki (OCT1 transport protein [1]): 0.36 ± 0.08 µM
Ki (OCT1 transport protein [8]): 0.4 µM
SMILES: CCN1C(=Cc2ccc3ccccc3[n+]2CC)C=Cc2ccccc21 [Decynium 22]
Ki [5]: 0.23 µM
Ki [6]: > 0.1 µM
Ki [7]: 0.0056 µM

SMILES: COC(=O)[C@H]1[C@H]2C[C@@H]3c4[nH]c5cc(OC)ccc5c4CCN3C[C@H]2C[C@@H](OC(=O)c2cc(OC)c(OC)c(OC)c2)[C@@H]1OC [Reserpine]
effect on OCT1-elicited transport (OCT1 transport protein [3]; 5 μM): no effect
inhibiting concentration, neuronal monoamine transport protein in synaptic vesicles [9]: sub-nanomolar

SMILES: COc1cc(C(O)CNC(C)C)ccc1O (centres unmarked) [O-Methylisoprenaline]
Ki (OCT1 transport protein [1]): 43 ± 5 µM
inhibition of OCT1-elicited ^14 C-TEA uptake (in words) (OCT1 transport protein [3]; oocytes injected with OCT1 cRNA): inhibited
Ki [5]: 78 µM

SMILES: CNCCCN1c2ccccc2CCc2ccccc21 [Desipramine]
inhibition of OCT1-elicited ^14 C-TEA uptake (in words) (OCT1 transport protein [3]): inhibited

SMILES: C[N+](C)(C)C [Tetramethylammonium]
Ki (luminal uptake of TEA; read-out: Ki for luminal uptake of TEA): 7e+07 nM
Ki [2]: 1400 µM
inhibition of OCT1-elicited ^14 C-TEA uptake (in words) (OCT1 transport protein [3]): inhibited

SMILES: C[n+]1ccc(-c2ccccc2)cc1 [1-Methyl-4-phenylpyridinium]
Ki (OCT1 transport protein [1]): 13 ± 2 µM
